Test results reported in patent US11912719B2, “Substituted isoquinolines as rock kinase inhibitors” (Cervello Therapeutics LLC, priority 2018, dated 2024).

How the values were obtained:
Assay type in all cases: biochemical
[1] = biological target: T1, human ROCK2 enzyme kinase domain (Homo sapiens, UniProt O75116); test: fluorescence coupling (TR-FRET) enzymatic assay, ROCK2; details: 4 nM enzyme, 50 nM Ulight-CREBTide, one hour room temperature
T1 construct: GST; purchased Carna BioSciences 01-110
T1 sequence (O75116 1-553): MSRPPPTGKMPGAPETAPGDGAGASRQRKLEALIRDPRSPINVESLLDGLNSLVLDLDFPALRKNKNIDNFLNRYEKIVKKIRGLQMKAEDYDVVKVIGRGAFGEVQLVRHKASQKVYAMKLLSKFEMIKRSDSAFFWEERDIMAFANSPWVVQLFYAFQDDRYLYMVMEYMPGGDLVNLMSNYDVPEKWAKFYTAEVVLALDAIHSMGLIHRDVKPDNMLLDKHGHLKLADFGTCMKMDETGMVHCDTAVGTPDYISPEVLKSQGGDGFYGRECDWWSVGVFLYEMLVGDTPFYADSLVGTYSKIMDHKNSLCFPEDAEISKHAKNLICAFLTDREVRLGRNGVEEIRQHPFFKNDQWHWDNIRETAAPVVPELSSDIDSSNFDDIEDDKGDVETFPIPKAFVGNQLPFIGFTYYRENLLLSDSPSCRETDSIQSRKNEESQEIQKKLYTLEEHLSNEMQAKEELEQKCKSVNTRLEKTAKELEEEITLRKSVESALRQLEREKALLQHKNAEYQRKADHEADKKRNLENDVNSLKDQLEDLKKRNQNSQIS
Experimental: (§1) Dose-response curves for compounds of the present invention were determined using a fluorescence coupling enzymatic assay using purified C-terminal truncated human ROCK1 catalytic domain (amino acids 1-477 of accession number NP_005397.1) fused to GST (Carna BioSciences, Catalog #01-109) and purified C-terminal truncated human ROCK2 enzyme kinase domain (amino acids 1-553 of accession number NP_004841.2) fused to GST BioSciences, Catalog #01-110). In addition, full length cGMP-dependent protein kinase 1 (PKG or PRKG1; amino acids 1-686 of accession number NP_006249.1) fused to GST (Carna BioSciences, Catalog #01-142), full length PKACα (PRKACA; amino acids 1-351 of accession number NP_002721.1) fused to GST (Carna BioSciences, Catalog #01-127), and C-terminal truncated human AKT1 catalytic domain (amino acids 104-480 of accession number NP_005154.1) fused to GST Biosciences, Catalog #01-101) were used as a control to measure any non-desired off-target kinase activity.
(§2) Briefly, compounds of the present invention were solubilized in DMSO and a series of 12, three-fold serial dilutions were made for each compound in 2.5% DMSO. The initial starting concentration for the serial dilutions of each compound was 10 μM or 100 μM. Control samples lacking compound, ROCK enzyme or ATP also were prepared and processed in parallel with compound test samples.
(§3) A 4 μL aliquot of each serial dilution of test compound diluted in H2O with 2.5% DMSO was added to a well containing 4 μL of 10 nM purified N-truncated ROCK1 (4 nM final concentration), 10 nM purified N-truncated ROCK2 enzyme (4 nM final concentration), 1.25 nM AKT1 (0.5 nM final concentration), 25 pM PKACA (10 pM final concentration) or 20 nM PKG (8 nM final concentration), in reaction buffer containing 50 mM Hepes, pH 7.5, 1 mM EGTA, 10 mM MgCl2, 2 mM DTT, and 0.01% Tween 20 (final concentration). To initiate the enzymatic reaction, 2 μL of a solution was added to each well to provide a final concentration of 50 nM Ulight-CREBTide peptide substrate (Perkin Elmer, Catalog #TRF0107) and 4 μM ATP for ROCK1 and AKT1 assays, […] for ROCK2 assays and 30 μM ATP for PKG assays, or 1 μM ATP for PKACA assays. The reaction mixtures were incubated at room temperature for one hour. After one hour, the reaction was stopped by the addition of a 10 solution of an Europium-labelled phospho-CREB (Ser133) antibody (Perkin Elmer, Catalog #TRF0200) in LANCE buffer supplemented with 20 mM EDTA. The stopped reaction mixtures were incubated at room temperature for 90 minutes. The TR-FRET 665/620 ratios were determined using a Clariostar monochromator plate reader instrument (BMG LabTech) in accordance with the manufacturer's instructions. The ICso value for each compound was determined from each dose-response curve using GraphPad Prism 7 software with a sigmodial dose response. Key: A is IC50≤100 nM; B is 100 nM<IC50<1000 nM; C is 1,000<IC50≤10,000 nM; D is IC50>10,000 nM

[2] = biological target: T2, human AKT1 catalytic domain (Homo sapiens, UniProt P31749); test: fluorescence coupling (TR-FRET) enzymatic assay, AKT1 off-target control; details: 0.5 nM enzyme, 4 μM ATP, 50 nM Ulight-CREBTide, one hour room temperature
T2 construct: GST; purchased Carna BioSciences 01-101
T2 sequence (P31749 104-480): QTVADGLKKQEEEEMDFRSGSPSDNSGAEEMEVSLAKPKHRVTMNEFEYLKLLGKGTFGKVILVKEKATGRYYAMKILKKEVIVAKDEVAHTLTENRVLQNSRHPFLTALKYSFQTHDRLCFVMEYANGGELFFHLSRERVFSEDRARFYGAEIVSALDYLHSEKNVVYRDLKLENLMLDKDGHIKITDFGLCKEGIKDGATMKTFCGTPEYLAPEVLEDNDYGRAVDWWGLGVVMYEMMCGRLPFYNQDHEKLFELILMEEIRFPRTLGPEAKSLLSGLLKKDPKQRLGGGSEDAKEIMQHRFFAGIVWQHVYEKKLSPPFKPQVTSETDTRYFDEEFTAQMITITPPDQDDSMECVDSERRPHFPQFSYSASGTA
Experimental: as §1, §2, §3

[3] = biological target: T3, cGMP-dependent protein kinase 1 (PKG or PRKG1) (Homo sapiens, UniProt Q13976); test: fluorescence coupling (TR-FRET) enzymatic assay, PKG off-target control; details: 8 nM enzyme, 30 μM ATP, 50 nM Ulight-CREBTide, one hour room temperature
T3 construct: GST; purchased Carna BioSciences 01-142
T3 sequence (Q13976 1-686 isoform Q13976-2): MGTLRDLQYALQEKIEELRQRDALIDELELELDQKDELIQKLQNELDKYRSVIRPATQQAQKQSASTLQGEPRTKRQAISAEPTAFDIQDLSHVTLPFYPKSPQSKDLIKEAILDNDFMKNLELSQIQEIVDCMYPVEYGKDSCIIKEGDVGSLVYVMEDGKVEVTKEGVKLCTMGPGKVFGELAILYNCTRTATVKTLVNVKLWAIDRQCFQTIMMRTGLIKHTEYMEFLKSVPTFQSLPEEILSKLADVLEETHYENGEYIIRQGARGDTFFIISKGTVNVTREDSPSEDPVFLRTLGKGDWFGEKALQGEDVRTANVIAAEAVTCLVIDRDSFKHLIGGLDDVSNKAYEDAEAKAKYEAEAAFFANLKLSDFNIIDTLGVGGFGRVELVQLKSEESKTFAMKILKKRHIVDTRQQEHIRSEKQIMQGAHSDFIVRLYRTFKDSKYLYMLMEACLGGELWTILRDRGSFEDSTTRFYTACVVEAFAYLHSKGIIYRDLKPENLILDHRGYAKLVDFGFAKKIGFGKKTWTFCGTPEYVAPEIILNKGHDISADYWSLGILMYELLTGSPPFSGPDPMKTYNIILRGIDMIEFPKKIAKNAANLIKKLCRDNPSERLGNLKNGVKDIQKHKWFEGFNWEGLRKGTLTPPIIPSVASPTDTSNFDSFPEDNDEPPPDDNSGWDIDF
Experimental: as §1, §2, §3

[4] = biological target: T4, human ROCK1 catalytic domain (Homo sapiens, UniProt Q13464); test: fluorescence coupling (TR-FRET) enzymatic assay, ROCK1; details: 4 nM enzyme, 4 μM ATP, 50 nM Ulight-CREBTide, one hour room temperature; read-out: ROCK1 IC50
T4 construct: GST; purchased Carna BioSciences 01-109
T4 sequence (Q13464 1-477): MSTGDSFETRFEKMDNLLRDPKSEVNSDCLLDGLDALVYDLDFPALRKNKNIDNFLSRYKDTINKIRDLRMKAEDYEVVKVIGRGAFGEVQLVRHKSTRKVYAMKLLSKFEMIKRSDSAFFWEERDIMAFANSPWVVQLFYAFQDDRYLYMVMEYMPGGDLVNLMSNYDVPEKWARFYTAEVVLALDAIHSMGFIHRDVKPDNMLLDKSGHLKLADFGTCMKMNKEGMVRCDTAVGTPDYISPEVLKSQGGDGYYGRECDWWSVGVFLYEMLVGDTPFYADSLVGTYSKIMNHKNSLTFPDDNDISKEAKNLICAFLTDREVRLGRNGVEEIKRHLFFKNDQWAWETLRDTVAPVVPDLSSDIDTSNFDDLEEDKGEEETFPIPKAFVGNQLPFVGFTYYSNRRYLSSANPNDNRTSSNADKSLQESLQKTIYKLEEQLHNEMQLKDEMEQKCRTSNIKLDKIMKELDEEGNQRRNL
Experimental: as §2
The reaction mixtures were incubated at room temperature for one hour. After one hour, the reaction was stopped by the addition of a 10 solution of an Europium-labelled phospho-CREB (Ser133) antibody (Perkin Elmer, Catalog #TRF0200) in LANCE buffer supplemented with 20 mM EDTA. The stopped reaction mixtures were incubated at room temperature for 90 minutes. […] The ICso value for each compound was determined from each dose-response curve using GraphPad Prism 7 software with a sigmodial dose response.

PKACα (PRKACA) = biological target: T5, PKACα (PRKACA) (Homo sapiens, UniProt P17612); test: fluorescence coupling (TR-FRET) enzymatic assay, PKACA off-target control; details: 10 pM enzyme, 1 μM ATP, 50 nM Ulight-CREBTide, one hour room temperature
T5 construct: GST; purchased Carna BioSciences 01-127
Experimental: as §1, §2, §3

| IC50 [1] [nM] | IC50 [2] [nM] | IC50 [3] [nM] | IC50 [4] [nM] | IC50 (PKACα (PRKACA)) [nM] | Structure (SMILES) |
| --- | --- | --- | --- | --- | --- |
| 100 to 1000 | > 10000 | > 10000 | 100 to 1000 | > 10000 | CN(C)c1cc(C#N)cc2c1CCN2S(=O)(=O)c1cccc2c(=O)[nH]cc(Cl)c12 [Example 37, 1-((4-chloro-1-oxo-1,2-dihydroisoquinolin-5-yl)sulfonyl)-4-(dimethylamino)indoline-6-carbonitrile] |
| 100 to 1000 | > 10000 | > 10000 | 100 to 1000 | > 10000 | N#Cc1cnc2c(c1)N(S(=O)(=O)c1cccc3c(=O)[nH]ccc13)CC2 [Example 38, 1-((1-oxo-1,2-dihydroisoquinolin-5-yl)sulfonyl)-2,3-dihydro-1H-pyrrolo[3,2-b]pyridine-6-carbonitrile] |
| 100 to 1000 | > 10000 | > 10000 | 100 to 1000 | > 10000 | Cc1c[nH]c(=O)c2cccc(S(=O)(=O)N3CCc4ncc(C#N)cc43)c12 [Example 39, 1-((4-methyl-1-oxo-1,2-dihydroisoquinolin-5-yl)sulfonyl)-2,3-dihydro-1H-pyrrolo[3,2-b]pyridine-6-carbonitrile] |
| < 100 | > 10000 | > 10000 | < 100 | > 10000 | N#Cc1cnc2c(c1)N(S(=O)(=O)c1cccc3c(=O)[nH]cc(Cl)c13)CC2 [Example 40, 1-((4-chloro-1-oxo-1,2-dihydroisoquinolin-5-yl)sulfonyl)-2,3-dihydro-1H-pyrrolo[3,2-b]pyridine-6-carbonitrile] |
| 100 to 1000 | > 10000 | > 10000 | 100 to 1000 | > 10000 | CNc1cc(C#N)cc2c1CCN2S(=O)(=O)c1cccc2c(=O)[nH]cc(C)c12 [Example 41, 1-((4-methyl-1-oxo-1,2-dihydroisoquinolin-5-yl)sulfonyl)-4-(methylamino)indoline-6-carbonitrile] |
| < 100 | > 10000 | > 10000 | 100 to 1000 | > 10000 | CNc1cc(C#N)cc2c1CCN2S(=O)(=O)c1cccc2c(=O)[nH]cc(Cl)c12 [Example 42, 1-((4-chloro-1-oxo-1,2-dihydroisoquinolin-5-yl)sulfonyl)-4-(methylamino)indoline-6-carbonitrile] |
| 100 to 1000 | > 10000 | > 10000 | 1000 to 10000 | > 10000 | CCNc1cc(C#N)cc2c1CCN2S(=O)(=O)c1cccc2c(=O)[nH]cc(C)c12 [Example 43, 4-(ethylamino)-1-((4-methyl-1-oxo-1,2-dihydroisoquinolin-5-yl)sulfonyl)indoline-6-carbonitrile] |
| 1000 to 10000 | > 10000 | > 10000 | 1000 to 10000 | > 10000 | CCNc1cc(C#N)cc2c1CCN2S(=O)(=O)c1cccc2c(=O)[nH]cc(Cl)c12 [Example 44, 1-((4-chloro-1-oxo-1,2-dihydroisoquinolin-5-yl)sulfonyl)-4-(ethylamino)indoline-6-carbonitrile] |
| < 100 | < 100 | 1000 to 10000 | < 100 | 100 to 1000 | Cc1c[nH]c(=O)c2cccc(S(=O)(=O)N3CCc4c(NCCN5C[C@H]6C[C@@H]5CO6)cc(C#N)cc43)c12 [Example 45] |
